Measurements: US10010525B2, “Methods of inducing anesthesia” (The Regents of the University of California, priority 2012, dated 2018)

What was measured:
[1] = molecular target: T1, NMDA (NR1/NR2A) receptors (Rattus norvegicus, UniProt P35439+Q00959); experiment: NMDA receptor two-electrode voltage clamp in oocytes at saturated drug concentration; format: cell-based; details: for NMDA % Direct Effect: drug response without receptor agonist; for NMDA % Direct Effect / NMDA % Agonist Effect: percent of control agonist peak, mean ±SEM, 5-6 oocytes, saturated drug; for NMDA % Agonist Effect: drug with glutamate and glycine; for NMDA Drug Response: drug+agonist versus control agonist peak; for NMDA receptor modulation (in words): saturating aqueous concentration; for direct effect on NMDA receptors (in words): without glutamate and glycine agonist
T1 construct: expressed in transfected cells; host or cells: Xenopus laevis oocytes (RNA injection, 1:1)
Source text: (§1) GABAA (α1β2γ2s) or NMDA (NR1/NR2A) receptors were expressed in oocytes and studied using standard two-electrode voltage clamp techniques. Hydrocarbons from 14 different organic functional groups were studied at saturated concentrations, and compounds within each group differed only by the carbon number at the ω-position or within a saturated ring. An effect on GABAA or NMDA receptors was defined as a 10% or greater reversible current change from baseline that was statistically different from zero.
(§2) An ovary from tricaine-anesthetized Xenopus laevis frogs was surgically removed using a protocol approved by the Institutional Animal Care and Use Committee at the University of California, Davis. Following manual disruption of the ovarian lobule septae, the ovary was incubated in 0.2% Type I collagenase (Worthington Biochemical, Lakewood, N.J.) to defolliculate oocytes which were washed and stored in fresh and filtered modified Barth's solution composed of 88 mM NaCl, 1 mM KCl, 2.4 mM NaHCO3, 20 mM HEPES, 0.82 mM MgSO4, 0.33 mM Ca(NO3)2, 0.41 mM CaCl2, 5 mM sodium pyruvate, gentamycin, penicillin, streptomycin, and corrected to pH=7.4. All salts and antibiotics were A.C.S. grade (Fisher Scientific, Pittsburgh, Pa.).
(§3) Clones used were provided as a gift from Dr. R. A. Harris (University of Texas, Austin) and were sequenced and compared to references in the National Center for Biotechnology Information database to confirm the identity of each gene. GABAA receptors were expressed using clones for the human GABAA α1 and the rat GABAA β2 and γ2s subunits in pCIS-II vectors. […] In separate oocytes, glutamate receptors were expressed using rat NMDA NR1 clones in a pCDNA3 vector and rat NMDA NR2A clones in a Bluescript vector. RNA encoding each subunit was prepared using a commercial transcription kit (T7 mMessage mMachine, Ambion, Austin, Tex.) was mixed in a 1:1 ratio, and 1-10 ng of total RNA was injected into oocytes and studied 1-2 days later.
Briefly, baseline perfusion solutions were the same as for GABAA with the substitution of equimolar BaCl2 for calcium salts and the addition of 0.1 mM EGTA; this constituted barium frog Ringer's solution (BaFR). Agonist solutions for NMDA studies also contained 0.1 mM glutamate (E) and 0.01 mM glycine (G) to constitute a BaFREG solution.
The syringe pump and perfusion chamber apparatus as well as the clamp holding potential and baseline-agonist exposure protocols were identical to that described for the GABAA studies. The same test compounds, concentrations, and preparative methods were used in NMDA voltage clamp studies as in the GABAA voltage clamp studies (Table 2).
(§4) Modulating drug responses were calculated as the percent of the control (baseline) peak as follows: 100·ID/IB, where ID and IB were the peak currents measured during agonist+drug and agonist baseline perfusions, respectively. When present, direct receptor activation by a drug was similarly calculated as a percent of the agonist response. […] A lack of receptor response (cut-off) was defined as a<10% change from baseline current that was statistically indistinguishable from zero using a two-tailed Student t-test.

[2] = molecular target: T2, GABAA (α1β2γ2s) receptors (UniProt P14867+P18508+P63138); experiment: GABAA receptor two-electrode voltage clamp in oocytes at saturated drug concentration; format: cell-based, human α1, rat β2 and γ2s; details: for GABAA % Direct Effect: drug response without receptor agonist; for GABAA % Direct Effect / GABAA % Agonist Effect: percent of control agonist peak, mean ±SEM, 5-6 oocytes, saturated drug; for GABAA % Agonist Effect: drug with γ-aminobutyric acid; for GABAA Drug Response: drug+agonist versus control agonist peak
T2 construct: expressed in transfected cells; host or cells: Xenopus laevis oocytes (intranuclear plasmid injection, α1:β2:γ2 = 1:1:10)
Source text: as §1, §2, §3
Oocytes were studied in a 250 μL linear-flow perfusion chamber with solutions administered by syringe pump at 1.5 ml/min with gastight glass syringes and Teflon tubing. Oocyte GABAA currents were studied using standard two-electrode voltage clamping techniques at a holding potential of […] using a 250 μL channel linear-flow perfusion chamber with solutions administered by syringe pump at 1.5 mL/min.
After FR perfusion for 5 min, oocytes were exposed to 30 sec FR-GABA followed by another 5 min FR washout; this was repeated until stable GABAA-elicited peaks were obtained. Next, FR containing a saturated solution of the study drug (Table 2)—or for gaseous study compounds a vapor pressure equal to 90% of barometric pressure with balance oxygen—was used to perfuse the oocyte chamber for 2 min followed by perfusion with a FR-GABA solution containing the identical drug concentration for 30 sec.
as §4

T1 sequence (Q00959 23-1464, other chains not shown): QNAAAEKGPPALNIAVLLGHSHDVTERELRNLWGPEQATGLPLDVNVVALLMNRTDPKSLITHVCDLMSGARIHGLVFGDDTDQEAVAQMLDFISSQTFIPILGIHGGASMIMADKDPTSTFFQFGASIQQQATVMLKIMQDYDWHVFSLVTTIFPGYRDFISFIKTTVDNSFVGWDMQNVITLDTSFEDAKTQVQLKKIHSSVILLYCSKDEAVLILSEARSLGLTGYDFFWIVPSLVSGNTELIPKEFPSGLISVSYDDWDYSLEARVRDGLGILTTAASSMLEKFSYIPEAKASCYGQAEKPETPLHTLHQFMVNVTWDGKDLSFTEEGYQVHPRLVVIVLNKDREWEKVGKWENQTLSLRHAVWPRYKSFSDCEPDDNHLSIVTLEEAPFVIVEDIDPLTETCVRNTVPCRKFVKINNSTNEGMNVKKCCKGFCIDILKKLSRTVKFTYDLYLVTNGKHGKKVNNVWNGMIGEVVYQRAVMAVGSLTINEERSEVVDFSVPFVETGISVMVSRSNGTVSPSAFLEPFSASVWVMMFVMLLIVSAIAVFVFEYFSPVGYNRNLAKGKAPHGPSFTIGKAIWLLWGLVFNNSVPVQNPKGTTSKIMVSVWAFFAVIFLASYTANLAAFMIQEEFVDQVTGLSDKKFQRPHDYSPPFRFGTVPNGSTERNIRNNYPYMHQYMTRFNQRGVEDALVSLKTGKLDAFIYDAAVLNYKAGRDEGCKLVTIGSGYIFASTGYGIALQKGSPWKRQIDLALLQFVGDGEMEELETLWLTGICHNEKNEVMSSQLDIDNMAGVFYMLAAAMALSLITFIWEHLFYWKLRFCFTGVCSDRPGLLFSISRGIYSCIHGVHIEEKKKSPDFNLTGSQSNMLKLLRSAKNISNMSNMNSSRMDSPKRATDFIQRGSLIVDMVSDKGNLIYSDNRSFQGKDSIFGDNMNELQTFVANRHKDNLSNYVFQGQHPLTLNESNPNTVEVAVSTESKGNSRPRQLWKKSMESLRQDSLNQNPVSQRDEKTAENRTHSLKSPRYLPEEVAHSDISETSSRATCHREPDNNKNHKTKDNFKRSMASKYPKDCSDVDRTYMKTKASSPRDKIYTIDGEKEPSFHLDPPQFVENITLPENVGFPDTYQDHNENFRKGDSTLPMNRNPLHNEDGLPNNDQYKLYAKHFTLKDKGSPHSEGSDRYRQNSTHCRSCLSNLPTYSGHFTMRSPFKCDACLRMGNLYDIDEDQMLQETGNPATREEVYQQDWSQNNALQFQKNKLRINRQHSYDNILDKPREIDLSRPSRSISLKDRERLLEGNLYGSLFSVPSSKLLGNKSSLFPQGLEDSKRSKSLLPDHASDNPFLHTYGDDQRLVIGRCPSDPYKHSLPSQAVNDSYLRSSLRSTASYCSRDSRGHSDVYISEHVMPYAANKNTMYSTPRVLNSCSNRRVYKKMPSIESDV
T2 sequence (P14867 28-456): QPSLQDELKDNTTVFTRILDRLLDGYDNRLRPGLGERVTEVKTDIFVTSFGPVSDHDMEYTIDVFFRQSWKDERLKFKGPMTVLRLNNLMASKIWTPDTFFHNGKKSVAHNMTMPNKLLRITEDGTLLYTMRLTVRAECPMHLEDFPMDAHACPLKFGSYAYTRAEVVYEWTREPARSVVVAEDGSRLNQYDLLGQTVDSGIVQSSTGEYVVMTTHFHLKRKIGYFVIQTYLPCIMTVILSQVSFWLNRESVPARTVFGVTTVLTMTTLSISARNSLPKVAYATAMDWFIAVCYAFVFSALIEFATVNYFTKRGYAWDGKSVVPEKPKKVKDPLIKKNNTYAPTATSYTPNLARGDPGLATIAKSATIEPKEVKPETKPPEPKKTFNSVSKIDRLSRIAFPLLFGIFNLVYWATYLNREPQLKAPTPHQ
T2 sequence (P63138 25-474 limits assumed): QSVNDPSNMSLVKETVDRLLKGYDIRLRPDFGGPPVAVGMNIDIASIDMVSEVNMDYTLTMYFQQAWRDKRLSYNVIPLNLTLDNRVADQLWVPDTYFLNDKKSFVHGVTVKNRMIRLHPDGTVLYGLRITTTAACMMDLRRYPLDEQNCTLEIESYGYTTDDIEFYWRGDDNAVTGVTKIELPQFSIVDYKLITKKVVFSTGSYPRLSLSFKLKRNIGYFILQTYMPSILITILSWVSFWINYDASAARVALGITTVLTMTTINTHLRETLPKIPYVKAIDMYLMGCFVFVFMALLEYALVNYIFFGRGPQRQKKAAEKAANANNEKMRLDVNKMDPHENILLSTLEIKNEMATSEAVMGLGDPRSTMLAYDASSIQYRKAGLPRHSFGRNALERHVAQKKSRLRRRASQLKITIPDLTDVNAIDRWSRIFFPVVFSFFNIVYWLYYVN
T2 sequence (P18508 39-466): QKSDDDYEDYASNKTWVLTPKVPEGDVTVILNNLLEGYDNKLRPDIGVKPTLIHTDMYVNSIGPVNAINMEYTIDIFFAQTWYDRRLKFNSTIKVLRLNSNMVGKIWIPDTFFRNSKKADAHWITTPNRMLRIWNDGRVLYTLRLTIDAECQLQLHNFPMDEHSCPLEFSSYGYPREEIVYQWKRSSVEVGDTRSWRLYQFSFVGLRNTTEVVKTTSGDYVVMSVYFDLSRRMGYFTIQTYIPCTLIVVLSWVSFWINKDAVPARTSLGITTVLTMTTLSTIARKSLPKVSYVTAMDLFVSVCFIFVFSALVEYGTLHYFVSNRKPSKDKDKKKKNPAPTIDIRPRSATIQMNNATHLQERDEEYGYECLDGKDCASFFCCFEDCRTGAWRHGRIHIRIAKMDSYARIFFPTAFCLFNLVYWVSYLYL

Compound | NMDA % Direct Effect [1] | NMDA % Agonist Effect [1] | NMDA Drug Response [1] | GABAA % Direct Effect [2] | GABAA % Agonist Effect [2] | GABAA Drug Response [2] | NMDA receptor modulation (in words) [1] | GABAA receptor modulation (in words) ([2]; saturating aqueous concentration) | NMDA receptor current inhibition ([1]; hydrocarbons prior to the cut-off, saturated) | direct effect on NMDA receptors (in words) [1]
CCc1cccc(CC)c1 [1,3-diethylbenzene] | none | 101 ± 2% | 0 (no response (0) for drug+agonist responses that differ by <10% from the control agonist peak) | none | 305 ± 24% | + (potentiation (+) for drug+agonist responses greater than the control agonist peak) |  |  |  | 
Cc1cccc(C)c1 [1,3-dimethylbenzene] | none | 58 ± 3% |  | none | 366 ± 21% | + (potentiation (+) for drug+agonist responses greater than the control agonist peak) |  |  |  | 
CCCCCCSCC [1-(ethylthio)-hexane] | none | 87 ± 1% |  | none | 350 ± 57% | + (potentiation (+) for drug+agonist responses greater than the control agonist peak) |  |  |  | 
CCCCCCCCSCC [1-(ethylthio)-octane] | none | 101 ± 1% | 0 (no response (0) for drug+agonist responses that differ by <10% from the control agonist peak) | none | 120 ± 3% | + (potentiation (+) for drug+agonist responses greater than the control agonist peak) |  |  |  | 
OCC(F)(F)C(F)(F)C(F)(F)C(F)(C(F)(F)F)C(F)(F)F [1-Hexanol, 2,2,3,3,4,4,5,6,6,6-decafluoro-5-(trifluoromethyl)-] |  |  |  |  |  |  | weak NMDA receptor antagonist | GABA-A receptor agonist |  | 
CCCCCCCCCCO [1-decanol] | none | 70 ± 3% |  | none | 386 ± 20% | + (potentiation (+) for drug+agonist responses greater than the control agonist peak) |  |  |  | 
CCCCCCCCCCCCO [1-dodecanol] | none | 98 ± 1% | 0 (no response (0) for drug+agonist responses that differ by <10% from the control agonist peak) | none | 177 ± 4% | + (potentiation (+) for drug+agonist responses greater than the control agonist peak) |  |  |  | 
CCCCCCCCCCCCCCCCCCCCN [1-eicosanamine] | none | 108 ± 1% | 0 (no response (0) for drug+agonist responses that differ by <10% from the control agonist peak) | none | 166 ± 7% | + (potentiation (+) for drug+agonist responses greater than the control agonist peak) |  |  |  | 
CCCCCCCCF [1-fluoroctane] | none | 98 ± 1% | 0 (no response (0) for drug+agonist responses that differ by <10% from the control agonist peak) | none | 182 ± 18% | + (potentiation (+) for drug+agonist responses greater than the control agonist peak) |  |  |  | 
CCCCCCF [1-fluorohexane] | none | 101 ± 1% | 0 (no response (0) for drug+agonist responses that differ by <10% from the control agonist peak) | 11 ± 4% | 207 ± 13% | + (potentiation (+) for drug+agonist responses greater than the control agonist peak) |  |  |  | 
CCCCCF [1-fluoropentane] | none | 76 ± 2% |  | none | 539 ± 35% | + (potentiation (+) for drug+agonist responses greater than the control agonist peak) |  |  |  | 
C#CCCCCC [1-heptyne] | none | 68 ± 10% |  | none | 172 ± 8% | + (potentiation (+) for drug+agonist responses greater than the control agonist peak) |  |  |  | 
CCCCCCS [1-hexanethiol] | none | 102 ± 3% | 0 (no response (0) for drug+agonist responses that differ by <10% from the control agonist peak) | 8 ± 2% | 290 ± 41% | + (potentiation (+) for drug+agonist responses greater than the control agonist peak) | did not |  |  | 
C=CCCCC [1-hexene] | none | 97 ± 0% | 0 (no response (0) for drug+agonist responses that differ by <10% from the control agonist peak) | none | 132 ± 2% | + (potentiation (+) for drug+agonist responses greater than the control agonist peak) |  |  |  | 
C#CCCCC [1-hexyne] | none | 41 ± 6% |  | 5 ± 2% | 418 ± 21% | + (potentiation (+) for drug+agonist responses greater than the control agonist peak) |  |  |  | 
CCCCCCCCCCCCCCCCCCN [1-octadecanamine] | none | 73 ± 4% |  | none | 146 ± 5% | + (potentiation (+) for drug+agonist responses greater than the control agonist peak) |  |  |  | 
C#CCCCCCC [1-octyne] | none | 96 ± 2% | 0 (no response (0) for drug+agonist responses that differ by <10% from the control agonist peak) | none | 259 ± 11% | + (potentiation (+) for drug+agonist responses greater than the control agonist peak) |  |  |  | 
CCCCCS [1-pentanethiol] | none | 85 ± 4% |  | 22 ± 8% | 466 ± 57% | + (potentiation (+) for drug+agonist responses greater than the control agonist peak) | inhibited NMDA receptors |  | 15% | 
C=CCCC [1-pentene] | none | 69 ± 1% |  | 2 ± 3% | 453 ± 38% | + (potentiation (+) for drug+agonist responses greater than the control agonist peak) |  |  |  | 
CCCCCCCCCCCO [1-undecanol] | none | 101 ± 2% | 0 (no response (0) for drug+agonist responses that differ by <10% from the control agonist peak) | none | 181 ± 13% | + (potentiation (+) for drug+agonist responses greater than the control agonist peak) |  |  |  | 
CN1CCOCC1 [4-methylmorpholine] |  |  |  |  |  |  |  |  |  | direct activation of NMDA receptors
N-methylpiperadine |  |  |  |  |  |  |  |  |  | direct activation of NMDA receptors
